What was measured:
[1] = molecular target: T1, Mas-related G-protein coupled receptor member X2 (Homo sapiens, UniProt Q96LB1); assay: Intracellular Calcium Mobilization Assay; conditions: pH 7.4; 30 °C
T1 sequence (Q96LB1 whole entry): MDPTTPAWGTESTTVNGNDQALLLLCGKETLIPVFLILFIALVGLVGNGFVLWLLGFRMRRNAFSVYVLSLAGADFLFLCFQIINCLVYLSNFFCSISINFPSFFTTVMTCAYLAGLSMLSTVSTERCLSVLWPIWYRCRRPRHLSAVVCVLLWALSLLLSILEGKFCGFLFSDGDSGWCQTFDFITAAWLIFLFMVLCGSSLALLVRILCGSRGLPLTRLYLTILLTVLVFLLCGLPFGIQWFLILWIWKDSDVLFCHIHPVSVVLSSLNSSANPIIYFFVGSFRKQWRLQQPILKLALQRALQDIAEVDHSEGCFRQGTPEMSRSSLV
Experimental: MRGPRX2 stable cells were maintained in DMEM containing 10% FBS, 100 μg/ml hygromycin B, and 15 μg/ml blasticidin. For the calcium mobilization assay, cells were plated into glass bottomed, poly-L-lysine coated, black 384 well plates at a density of 20,000 cells/well in medium containing 1% dialyzed FBS, 1 μg/ml tetracycline, 100 IU/ml penicillin and 100 μg/ml streptomycin and incubated 24 h. Following tetracycline induction, medium was removed and cells were loaded with 20 μl/well of 1× FLIPR Calcium dye (Molecular Devices) and 2.5 mM probenic acid, for 1 h in a humidified environment at 37 °C with 5% CO2. For mast cell calcium experiments, cells were seeded at a density of 50,000 cells/well in Tyrode's buffer containing 1× calcium dye and incubated for 1 h before treatment and analysis. After dye loading, baseline was measured for 10 s before drug treatment, and then cells were treated with 10 μl of 3× concentrated drug in drug buffer (1× HBSS with 20 mM HEPES and 2.5 mM probenic acid, pH 7.4) in 16 point concentration response curves from 100 μM to 0.003 nM.

[2] = molecular target: T1, Mas-related G-protein coupled receptor member X2; assay: PRESTO-Tango Assay; conditions: pH 7.4; 30 °C
Experimental: HTLA cells (HEK-T cells stably expressing a β-arrestin2-TEV fusion protein and a tTa-dependent luciferase reporter) were maintained in DMEM (Corning) containing 10% FBS, 2 μg/ml puromycin and 100 μg/ml hygromycin B in a humidified atmosphere at 37 °C with 5% CO2. In brief, cells were plated to 50% confluency and transfected with a codon-optimized MRGPRX-Tango construct using the calcium phosphate method53. The next day, transfected cells were transferred to glass-bottomed, poly-L-lysine-coated white 384-well plates at a density of 20,000 cells/well. The following day, cells were treated with 10 μM concentrations of small molecules (in quadruplicate) diluted in drug buffer (1× HBSS with 20 mM HEPES and 0.3% bovine serum albumin, pH 7.4) and incubated for 18-24 h. After drug incubation, medium was removed and 20 μl of Bright-Glo (Promega; diluted 20-fold) was added to each well and incubated 15 min at room temperature.

Row | Structure (SMILES) | EC50 [1] [µM] | EC50 [2] [µM]
1 | CC(=O)O[C@H]1C=C[C@H]2[C@H]3Cc4ccc(O)c5c4[C@@]2(CCN3C)[C@H]1O5 [6-Acetylmorphine] | 21 | 12
2 | CC[C@H](C)[C@H](NC(=O)[C@H](CCCNC(=N)N)NC(=O)[C@H](CCCNC(=N)N)NC(=O)[C@H](CC(C)C)NC(=O)[C@H](Cc1ccccc1)NC(=O)CNC(=O)CNC(=O)[C@@H](N)Cc1ccc(O)cc1)C(=O)N[C@@H](CCCNC(=N)N)C(=O)N1CCC[C@H]1C(=O)N[C@@H](CCCCN)C(=O)N[C@@H](CC(C)C)C(=O)N[C@@H](CCCCN)C(=O)N[C@@H](Cc1c[nH]c2ccccc12)C(=O)N[C@@H](CC(=O)O)C(=O)N[C@@H](CC(N)=O)C(=O)N[C@@H](CCC(N)=O)C(=O)O [Dynorphin A (1-17)] | 2.3 | 21
3 | COc1ccc2c3c1O[C@H]1[C@@H](OC(C)=O)C=C[C@H]4[C@@H](C2)N(C)CC[C@@]341 [6-Acetylcodeine] | 25 | 19
4 | C[C@@H]1C2Cc3ccc(O)cc3[C@]1(C)CCN2 [(6R,11S)-6,11-Dimethyl-1,2,3,4,5,6-hexahydro-2,6-methano-benzo[d]azocin-8-ol] | – | 50
5 | CN1CC[C@@]2(c3cccc(O)c3)Cc3nc4ccccc4cc3C[C@@H]2C1 [(+)-TAN-67] | 0.29 | 0.43
6 | CN1CC[C@]23CCCC[C@@H]2[C@H]1Cc1ccc(O)cc13 [Dextrorphan] | 3.9 | 4.2
7 | COc1ccc2c(c1)[C@@]13CCCC[C@@H]1[C@@H](C2)N(C)CC3 [Dextromethorphan] | 5.9 | 3.2
8 | CCC(=O)O[C@](Cc1ccccc1)(c1ccccc1)[C@H](C)CN(C)C [PROPOXYPHENE] | 32 | 15
9 | C[C@H]1C2Cc3ccc(O)cc3[C@@]1(C)CCN2 [(6S,11R)-6,11-Dimethyl-1,2,3,4,5,6-hexahydro-2,6-methano-benzo[d]azocin-8-ol] | 13 | 14
10 | C[C@@H]1[C@@H]2Cc3ccc(O)cc3[C@@]1(C)CCN2C [(+)-Metazocine] | 9.3 | 7.2
11 | COC1=CC=C2[C@H]3Cc4ccc(OC)c5c4[C@@]2(CCN3C)[C@H]1O5 [Thebaine] | 76 | 11
12 | CN1CC[C@@]23CCCC[C@H]2[C@@H]1Cc1ccc(O)cc13 [Levorphanol] | 13 | 22
13 | CC(C)C[C@H](NC(=O)[C@H](Cc1ccccc1)NC(=O)CNC(=O)CNC(=O)[C@@H](N)Cc1ccc(O)cc1)C(=O)N[C@@H](CCCNC(=N)N)C(=O)N[C@@H](CCCNC(=N)N)C(=O)N[C@@H](CCC(N)=O)C(=O)N[C@@H](Cc1ccccc1)C(=O)N[C@@H](CCCCN)C(=O)N[C@H](C(=O)N[C@H](C(=O)N[C@H](C(=O)O)[C@H](C)O)C(C)C)C(C)C [Dynorphin B (1-13)] | 6.5 | 33
